# Reference: ChEMBL document CHEMBL1201862, “PubChem BioAssay data set” (2004)
#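 Five compound concentrations were applied to cells in 96-well plates for 48 hours; endpoints were derived by simple linear interpolation of the resulting dose-response curve. GI50 = concentration required for 50% inhibition of growth.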 The source made the active and inactive calls. Cut-off read from the data, not from the text of the source: active = GI50 up to about 1.1 µM and inactive = higher.
# How the values were obtained:
# Experiment in all cases: inhibition of tumour cell growth, NCI panel, 48 h
# [1] = system: 786-0
# [2] = system: A498
# [3] = system: A549
# [4] = system: ACHN
# [5] = system: CAKI-1
# [6] = system: CCRF-CEM
# [7] = system: COLO 205
# [8] = system: DLD-1
# [9] = system: DMS-114
# [10] = system: DMS-273
# [11] = system: EKVX
# [12] = system: HCC 2998
# [13] = system: HCT-116
# [14] = system: HCT-15
# [15] = system: HL-60
# [16] = system: HOP-18
# [17] = system: HOP-62
# [18] = system: HOP-92
# [19] = system: HT-29
# [20] = system: IGROV-1
# [21] = system: K562
# [22] = system: KM-20L2
# [23] = system: KM12
# [24] = system: LOX IMVI
# [25] = system: LXFL 529
# [26] = system: M14
# [27] = system: M19-MEL
# [28] = system: MOLT-4
# [29] = system: Malme-3M
# [30] = system: NCI-H226
# [31] = system: NCI-H23
# [32] = system: NCI-H460
# [33] = system: NCI-H522
# [34] = system: OVCAR-3
# [35] = system: OVCAR-4
# [36] = system: OVCAR-5
# [37] = system: OVCAR-8
# [38] = system: RPMI-8226
# [39] = system: RXF 393
# [40] = system: SF-268
# [41] = system: SF-295
# [42] = system: SF-539
# [43] = system: SK-MEL-28
# [44] = system: SK-MEL-2
# [45] = system: SK-MEL-5
# [46] = system: SK-OV-3
# [47] = system: SN12C
# [48] = system: SNB-19
# [49] = system: SNB-75
# [50] = system: SNB-78
# [51] = system: SR
# [52] = system: SW-620
# [53] = system: TK-10
# [54] = system: U-251
# [55] = system: UACC-257
# [56] = system: UACC-62
# [57] = system: UO-31
# [58] = system: BT-549
# [59] = system: DU-145
# [60] = system: Hs-578T
# [61] = system: MCF7
# [62] = system: MDA-MB-231
# [63] = system: MDA-MB-435
# [64] = system: MDA-N
# [65] = system: NCI/ADR-RES
# [66] = system: PC-3
# [67] = system: T47D
smiles,measurement,setting,value
C[C@H](O)CCC(=O)c1ccoc1,GI50,[1],> 100 µM (inactive)
same,GI50,[2],> 100 µM (inactive)
same,GI50,[3],> 100 µM (inactive)
same,GI50,[4],> 100 µM (inactive)
same,GI50,[5],> 100 µM (inactive)
same,GI50,[6],> 100 µM (inactive)
same,GI50,[7],> 100 µM (inactive)
same,GI50,[8],> 100 µM (inactive)
same,GI50,[9],> 100 µM (inactive)
same,GI50,[10],> 100 µM (inactive)
same,GI50,[11],> 100 µM (inactive)
same,GI50,[12],> 66.1 µM (inactive)
same,GI50,[13],> 100 µM (inactive)
same,GI50,[14],> 100 µM
same,GI50,[15],> 100 µM (inactive)
same,GI50,[16],75 µM (inactive)
same,GI50,[17],> 100 µM (inactive)
same,GI50,[18],> 100 µM (inactive)
same,GI50,[19],> 100 µM (inactive)
same,GI50,[20],> 100 µM (inactive)
same,GI50,[21],> 100 µM (inactive)
same,GI50,[22],> 100 µM (inactive)
same,GI50,[23],> 100 µM (inactive)
same,GI50,[24],> 100 µM (inactive)
same,GI50,[25],> 100 µM (inactive)
same,GI50,[26],> 100 µM (inactive)
same,GI50,[27],> 100 µM (inactive)
same,GI50,[28],> 100 µM (inactive)
same,GI50,[29],> 100 µM (inactive)
same,GI50,[30],> 100 µM (inactive)
same,GI50,[31],> 100 µM (inactive)
same,GI50,[32],> 100 µM (inactive)
same,GI50,[33],> 100 µM (inactive)
same,GI50,[34],> 100 µM (inactive)
same,GI50,[35],> 100 µM (inactive)
same,GI50,[36],> 100 µM (inactive)
same,GI50,[37],> 100 µM (inactive)
same,GI50,[38],> 100 µM (inactive)
same,GI50,[39],> 100 µM (inactive)
same,GI50,[40],> 100 µM (inactive)
same,GI50,[41],> 100 µM (inactive)
same,GI50,[42],> 100 µM (inactive)
same,GI50,[43],> 100 µM (inactive)
same,GI50,[44],> 100 µM (inactive)
same,GI50,[45],> 100 µM (inactive)
same,GI50,[46],> 100 µM (inactive)
same,GI50,[47],> 100 µM (inactive)
same,GI50,[48],> 100 µM (inactive)
same,GI50,[49],> 34.5 µM (inactive)
same,GI50,[50],> 100 µM (inactive)
same,GI50,[51],> 100 µM (inactive)
same,GI50,[52],> 100 µM (inactive)
same,GI50,[53],> 100 µM (inactive)
same,GI50,[54],> 100 µM (inactive)
same,GI50,[55],> 100 µM (inactive)
same,GI50,[56],> 100 µM (inactive)
same,GI50,[57],> 100 µM (inactive)
CC(C)(C)c1cc(OCc2nnc3sc(S)nn23)c(Cl)cc1OCc1nnc2sc(S)nn12,GI50,[1],31 µM (inactive)
same,GI50,[2],39.6 µM (inactive)
same,GI50,[3],35.1 µM (inactive)
same,GI50,[4],26.1 µM (inactive)
same,GI50,[58],30.5 µM (inactive)
same,GI50,[5],33.6 µM (inactive)
same,GI50,[6],11.3 µM (inactive)
same,GI50,[7],39.1 µM (inactive)
same,GI50,[59],30.3 µM (inactive)
same,GI50,[11],30.3 µM (inactive)
same,GI50,[12],31.8 µM (inactive)
same,GI50,[13],22.1 µM (inactive)
same,GI50,[14],40.6 µM
same,GI50,[15],22.5 µM (inactive)
same,GI50,[17],44.1 µM (inactive)
same,GI50,[18],17.5 µM (inactive)
same,GI50,[19],38 µM (inactive)
same,GI50,[60],77.3 µM (inactive)
same,GI50,[20],23.2 µM (inactive)
same,GI50,[21],32.6 µM (inactive)
same,GI50,[23],26.9 µM (inactive)
same,GI50,[24],18.4 µM (inactive)
same,GI50,[26],25.9 µM (inactive)
same,GI50,[61],15.6 µM (inactive)
same,GI50,[62],36.6 µM (inactive)
same,GI50,[63],23.6 µM (inactive)
same,GI50,[64],18.9 µM (inactive)
same,GI50,[28],23.8 µM (inactive)
same,GI50,[29],16.6 µM (inactive)
same,GI50,[30],> 100 µM (inactive)
same,GI50,[31],28.7 µM (inactive)
same,GI50,[32],29 µM (inactive)
same,GI50,[33],17.3 µM (inactive)
same,GI50,[65],78.5 µM (inactive)
same,GI50,[34],25.2 µM (inactive)
same,GI50,[35],32.5 µM (inactive)
same,GI50,[36],35.2 µM (inactive)
same,GI50,[37],37.2 µM (inactive)
same,GI50,[66],50.9 µM (inactive)
same,GI50,[38],30.7 µM (inactive)
same,GI50,[39],22.4 µM (inactive)
same,GI50,[40],24.9 µM (inactive)
same,GI50,[41],27.9 µM (inactive)
same,GI50,[42],35.7 µM (inactive)
same,GI50,[43],22.3 µM (inactive)
same,GI50,[44],27.4 µM (inactive)
same,GI50,[45],14.5 µM (inactive)
same,GI50,[46],45.4 µM (inactive)
same,GI50,[47],30.4 µM (inactive)
same,GI50,[48],35.5 µM (inactive)
same,GI50,[49],38.8 µM (inactive)
same,GI50,[51],18.3 µM (inactive)
same,GI50,[52],31.9 µM (inactive)
same,GI50,[67],19 µM (inactive)
same,GI50,[53],35 µM (inactive)
same,GI50,[54],29.1 µM (inactive)
same,GI50,[55],27.7 µM (inactive)
same,GI50,[56],17.4 µM (inactive)
same,GI50,[57],43.9 µM (inactive)
Cc1ccc2c(ccc(/C=C\c3cc(C)c4cccnc4c3O)[n+]2C)c1,GI50,[1],2.32 µM (inactive)
same,GI50,[2],14.6 µM (inactive)
same,GI50,[3],8.43 µM (inactive)
same,GI50,[4],5.65 µM (inactive)
same,GI50,[5],5.53 µM (inactive)
same,GI50,[6],0.796 µM (active)
same,GI50,[7],9.89 µM (inactive)
same,GI50,[8],0.849 µM (active)
same,GI50,[9],0.811 µM (active)
same,GI50,[10],0.352 µM (active)
same,GI50,[11],15.9 µM (inactive)
same,GI50,[12],1.81 µM (inactive)
same,GI50,[13],0.61 µM (active)
same,GI50,[15],0.454 µM (active)
same,GI50,[16],1.81 µM (inactive)
same,GI50,[17],5.5 µM (inactive)
same,GI50,[20],6.24 µM (inactive)
same,GI50,[21],0.385 µM (active)
same,GI50,[22],2.84 µM (inactive)
same,GI50,[23],1.32 µM (inactive)
same,GI50,[24],0.791 µM (active)
same,GI50,[25],0.3 µM (active)
same,GI50,[26],0.664 µM (active)
same,GI50,[28],1.05 µM (active)
same,GI50,[29],8.41 µM (inactive)
same,GI50,[30],1.4 µM (inactive)
same,GI50,[31],2.67 µM (inactive)
same,GI50,[32],0.439 µM (active)
same,GI50,[33],4.34 µM (inactive)
same,GI50,[34],2.01 µM (inactive)
same,GI50,[35],14.4 µM (inactive)
same,GI50,[36],22 µM (inactive)
same,GI50,[37],0.912 µM (active)
same,GI50,[38],0.401 µM (active)
same,GI50,[40],9.25 µM (inactive)
same,GI50,[41],10 µM (inactive)
same,GI50,[42],1.64 µM (inactive)
same,GI50,[45],0.372 µM (active)
same,GI50,[47],2 µM (inactive)
same,GI50,[48],6.08 µM (inactive)
same,GI50,[51],2.12 µM (inactive)
same,GI50,[52],1.66 µM (inactive)
same,GI50,[54],1.75 µM (inactive)
same,GI50,[55],11.7 µM (inactive)
same,GI50,[56],0.535 µM (active)
same,GI50,[57],15.7 µM (inactive)
